Reference: PubChem BioAssay (NCI)
Several values for one entry are separate records, joined by “and”; a condition that tells them apart may be missing. Equal values may be shown once.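 Following 48 hours of exposure in 96-well plates, responses at five concentrations were used to interpolate endpoints linearly. GI50: concentration for 50% inhibition of growth. TGI marks complete inhibition of growth.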

Assays:
Test in all cases: NCI tumour cell line growth inhibition, 48 h
[1] = test system: EKVX NSCLC
[2] = test system: DMS 273 small cell lung
[3] = test system: KM20L2 colon
[4] = test system: SF-539 CNS
[5] = test system: PC-3 prostate
[6] = test system: P388/ADR leukemia
[7] = test system: SNB-19 CNS
[8] = test system: A498 renal
[9] = test system: DU-145 prostate
[10] = test system: HT29 colon
[11] = test system: CCRF-CEM leukemia
[12] = test system: MDA-MB-231 breast
[13] = test system: SK-MEL-5 melanoma
[14] = test system: RPMI-8226 leukemia
[15] = test system: UACC-62 melanoma
[16] = test system: COLO 205 colon
[17] = test system: SK-OV-3 ovarian
[18] = test system: KM12 colon
[19] = test system: SN12C renal
[20] = test system: MOLT-4 leukemia
[21] = test system: HS 578T breast
[22] = test system: SF-295 CNS
[23] = test system: NCI-H460 lung
[24] = test system: SNB-78 CNS
[25] = test system: BT-549 breast
[26] = test system: P388 leukemia
[27] = test system: CAKI-1 renal
[28] = test system: SK-MEL-2 melanoma
[29] = test system: NCI-H522 lung
[30] = test system: RXF 393 renal
[31] = test system: HCT-116 colon
[32] = test system: NCI-H226 lung
[33] = test system: M14 melanoma
[34] = test system: HOP-18 NSCLC
[35] = test system: MDA-N
[36] = test system: MDA-MB-435
[37] = test system: UO-31 renal
[38] = test system: K-562 leukemia
[39] = test system: NCI/ADR-RES ovarian
[40] = test system: OVCAR-8 ovarian
[41] = test system: SK-MEL-28 melanoma
[42] = test system: XF 498 CNS
[43] = test system: T-47D breast
[44] = test system: SR leukemia
[45] = test system: TK-10 renal
[46] = test system: ACHN renal
[47] = test system: DLD-1 colon
[48] = test system: A549 NSCLC
[49] = test system: SNB-75 CNS
[50] = test system: HOP-92 NSCLC
[51] = test system: 786-0 renal
[52] = test system: OVCAR-4 ovarian
[53] = test system: SN12K1 renal
[54] = test system: DMS 114 small cell lung
[55] = test system: SW-620 colon
[56] = test system: U251 CNS

C/C(=C\COc1ccc2ccc(=O)oc2c1)C1=CC(=O)C(C)(C)O1
GI50 [1]: 4.9 µM
TGI [1]: 28.2 µM and 30.6 µM
TGI [2]: 27.9 µM
TGI [3]: 8.53 µM
TGI [4]: 4.88 µM and 8.64 µM
TGI [5]: 23.3 µM
TGI [6]: 7.3 µM
GI50 [7]: 2.94 µM
TGI [7]: 8.22 µM and 30.5 µM
GI50 [8]: 2.79 µM
TGI [8]: 7.32 µM and 9.56 µM
TGI [9]: 7.34 µM
GI50 [10]: 3.55 µM
TGI [10]: 13.3 µM and 7.83 µM
GI50 [11]: 2.28 µM
TGI [11]: 7.11 µM and 21.4 µM
TGI [12]: 22.9 µM
GI50 [13]: 2.72 µM
TGI [13]: 13.3 µM and 6.95 µM
TGI [14]: 6.2 µM and 15.7 µM
GI50 [15]: 2.3 µM
TGI [15]: 6.43 µM and 10.5 µM
GI50 [16]: 2.73 µM
TGI [16]: 6.64 µM and 8.96 µM
GI50 [17]: 3.06 µM
TGI [17]: 8.72 µM and 34.1 µM
GI50 [18]: 2.66 µM and 2.35 µM
TGI [18]: 9.77 µM and 8.59 µM
GI50 [19]: 3.34 µM
TGI [19]: 14.1 µM and 10.8 µM
GI50 [20]: 3.25 µM
TGI [20]: 15 µM and 20.2 µM
TGI [21]: 7.3 µM
GI50 [22]: 4.3 µM
TGI [22]: 20.4 µM and 8.41 µM
GI50 [23]: 2.61 µM and 4.07 µM
TGI [23]: 6.29 µM and 11.5 µM
TGI [24]: 61.3 µM
TGI [25]: 19.1 µM
TGI [26]: 8.39 µM
GI50 [27]: 3.77 µM
TGI [27]: 14.6 µM and 19.8 µM
GI50 [28]: 4.19 µM
TGI [28]: 23.2 µM and 15.1 µM
GI50 [29]: 2.37 µM and 0.804 µM
TGI [29]: 7.73 µM and 3.76 µM
GI50 [30]: 2.39 µM
TGI [30]: 12.2 µM and 5.61 µM
GI50 [31]: 2.84 µM
TGI [31]: 7.57 µM and 6.64 µM
GI50 [32]: 2.64 µM
TGI [32]: 7.24 µM and 10.2 µM
TGI [33]: 16.3 µM
TGI [34]: 80.5 µM
TGI [35]: 16 µM
TGI [36]: 13.2 µM
GI50 [37]: 3.83 µM
TGI [37]: 14.7 µM and 14 µM
GI50 [38]: 1.85 µM
GI50 [39]: 3.81 µM
TGI [39]: > 100 µM and 35.6 µM
GI50 [40]: 2.18 µM
GI50 [41]: 4.82 µM
TGI [41]: 18.3 µM and 10.1 µM
TGI [42]: 7.74 µM
TGI [43]: 30.6 µM
TGI [44]: 4.92 µM
TGI [45]: 16.7 µM
TGI [46]: 15.9 µM
TGI [47]: 30.8 µM
GI50 [48]: 4.18 µM
TGI [48]: 47.2 µM and 51.9 µM
GI50 [49]: 3.55 µM
TGI [49]: 14.6 µM and 15.4 µM
GI50 [50]: 2.38 µM
TGI [50]: 7.24 µM and 9.92 µM
TGI [51]: 12.9 µM
GI50 [52]: 4.3 µM
TGI [52]: 24.8 µM and 7.56 µM
TGI [53]: 9.97 µM
TGI [54]: 9.44 µM
GI50 [55]: 2.27 µM
TGI [55]: 5.58 µM and 14.7 µM
GI50 [56]: 2.7 µM
TGI [56]: 10.1 µM and 8.61 µM
